Values of other authors as cited in publication PMC11859340, “The Therapeutic Potential of Spirooxindoles in Cancer: A Focus on p53–MDM2 Modulation” (Pharmaceuticals, 2025).
Read-outs that look alike come from different tables or passages of the source.

How the values were obtained:
HCT116 (colon) [1] = system: HCT116 (colon); set-up: method as in PMID 30508794; details: MTT; read-out: IC50 against HCT116
HepG2 (liver) [2] = system: HepG2 (liver); set-up: method as in PMID 30508794; details: MTT; read-out: IC50 against HepG2
[3] = set-up: method as in PMID 30508794; details: MTT; read-out: IC50 against PC3
[4] = system: p53-wild-type MCF7 (breast cancer) cell line; set-up: method as in PMID 33725632
[5] = system: SK-OV-3 (ovarian cancer cell line with mutant p53); set-up: method as in PMID 30458062; details: read-out: IC50 against SK-OV-3
p53–MDM2 = system: p53–MDM2; set-up: method as in PMID 30458062
[6] = system: SJSA-1 (osteosarcoma cancer cell line with wild p53); set-up: method as in PMID 30458062; details: read-out: IC50 against SJSA-1
PC3 = system: PC3; set-up: method as in doi:10.3390/separations10040225; details: MTT; read-out: IC50 against PC3
MDA-MB-231 = system: MDA-MB-231; set-up: method as in doi:10.3390/separations10040225; details: MTT; read-out: IC50 against MDA-MB-231
p53 = system: p53; set-up: method as in doi:10.1080/10426507.2020.1723590
PC3 (prostate) = system: PC3 (prostate); set-up: method as in PMID 34684885; details: MTT; read-out: IC50 against PC3
MCF7 (breast) [7] = system: MCF7 (breast); set-up: method as in PMID 29302672; details: at 10 μM, CCK-8
A549 (lung) [8] = system: A549 (lung); set-up: method as in PMID 29302672; details: at 10 μM, CCK-8
HCT116 (colon) [9] = system: HCT116 (colon); set-up: method as in PMID 29302672; details: at 10 μM, CCK-8
MCF7 (breast) [10] = system: MCF7 (breast); set-up: method as in PMID 26256638; details: MTT; read-out: IC50 against MCF7
HeLa (cervical) = system: HeLa (cervical); set-up: method as in doi:10.31788/RJC.2023.1638506; details: MTT; read-out: IC50 against HeLa
MCF7 (breast) [11] = system: MCF7 (breast); set-up: method as in doi:10.31788/RJC.2023.1638506; details: MTT; read-out: IC50 against MCF7
A549 (lung) [12] = system: A549 (lung); set-up: method as in doi:10.1080/10426507.2020.1723590; details: MTT; read-out: IC50 against A549
[13] = system: HEK293T (embryonic kidney); set-up: method as in doi:10.1080/10426507.2020.1723590; details: MTT; read-out: IC50 against HEK293T
HCT116 (colon) [14] = system: HCT116 (colon); set-up: method as in PMID 30802707; details: MTT; read-out: IC50 against HCT116
HepG2 (liver) [15] = system: HepG2 (liver); set-up: method as in PMID 30802707; details: MTT; read-out: IC50 against HepG2
PC-3 (prostate) = system: PC-3 (prostate); set-up: method as in PMID 30802707; details: MTT; read-out: IC50 against PC-3

**Q.** For `O=C(c1c[nH]c2ccccc12)C1C(c2ccc(C(F)(F)F)cc2)C2CSCN2C12C(=O)Nc1ccccc12` (centres unmarked) [51 (R = 4-F3CC6H4)], which IC50 (HCT116 (colon) [1]) is on record?
**A.** 7 ± 0.27 µM

**Q.** What about the IC50 (HepG2 (liver) [2]) of the same molecule?
**A.** 5.5 ± 0.2 µM

**Q.** And the IC50 [3]?
**A.** 6 ± 0.23 µM

**Q.** For `Cc1noc([C@@H]2[C@@H](c3ccccc3)[C@H](C(F)(F)F)N[C@@]23C(=O)Nc2cc(Cl)ccc23)c1[N+](=O)[O-]`, which IC50 ([4]; absence of Fer-1) is on record?
**A.** 0.12 µM

**Q.** And the IC50 ([4]; presence of Fer-1)?
**A.** 13.5 µM

**Q.** Which IC50 [5] does the source give for `O=C(O)c1ccc(N2CCC3C(C2=O)C(c2cccc(Cl)c2F)C2(C(=O)Nc4cc(Cl)ccc42)N3CC2CC2)cc1` (centres unmarked) [compound 63] here?
**A.** > 25 µM

**Q.** What about the IC50 (p53–MDM2) of the same molecule?
**A.** 0.004 µM

**Q.** What about the IC50 [6] of the same molecule?
**A.** 0.547 µM

**Q.** Which IC50 (PC3) does the source give for `O=C(c1nc2ccccc2[nH]1)[C@H]1[C@H](c2cccs2)C2CC3CCCCC3N2[C@]12C(=O)Nc1ccc(Cl)cc12` (some centres unmarked) [39 (R = 2-thienyl)] here?
**A.** 4.314 ± 0.036 µM

**Q.** What about the IC50 (MDA-MB-231) of the same molecule?
**A.** 3.8 ± 0.205 µM

**Q.** For `Cc1noc([C@@H]2[C@@H](c3ccccc3)[C@H](C(F)(F)F)N[C@@]23C(=O)Nc2cc(Br)ccc23)c1[N+](=O)[O-]`, which IC50 ([4]; absence of Fer-1) is on record?
**A.** 0.17 µM

**Q.** And the IC50 ([4]; presence of Fer-1)?
**A.** 13.7 µM

**Q.** Which p53 receptor activation (p53; A549, at 100 μM) does the source give for `CN1C[C@H](c2ccc(Cl)cc2)[C@]2(NC(=S)N(CC34CC5CC(CC(C5)C3)C4)C2=O)[C@]12C(=O)Nc1ccc(Br)cc12` [89 (R = Br, R’ = 4-ClC6H4)] here?
**A.** 2.03 fold

**Q.** For `O=C1/C(=C/c2ccccc2)CCC[C@@]12[C@H](c1ccccc1)[C@H]1C[C@@H]3CCCC[C@@H]3N1[C@]21C(=O)Nc2cc(Cl)ccc21` [70 (R = Ph, R’ = 6-Cl)], which IC50 (PC3 (prostate)) is on record?
**A.** 3.7 ± 1 µM

**Q.** For `O=C(O)c1ccc(N2CC3C(C2=O)C(c2cccc(Cl)c2F)C2(C(=O)Nc4cc(Cl)ccc42)N3CC2CC2)cc1` (centres unmarked) [compound 62], which IC50 [5] is on record?
**A.** > 25 µM

**Q.** And the IC50 (p53–MDM2)?
**A.** 0.004 µM

**Q.** And the IC50 [6]?
**A.** 0.161 µM

**Q.** Which “% inhibition, MCF7” value (MCF7 (breast) [7]) does the source give for `CC(=O)N1C(=O)[C@@]2(S[C@@H](C(=O)c3ccccc3)[C@@H](O)C[C@@H]2c2ccccc2)c2c(Br)cccc21` [compound 147] here?
**A.** 77.6%

**Q.** What about the “% inhibition, A549” value (A549 (lung) [8]) of the same molecule?
**A.** 70.3%

**Q.** What about the “% inhibition, HCT116” value (HCT116 (colon) [9]) of the same molecule?
**A.** 56.4%

**Q.** Which IC50 (MCF7 (breast) [10]) does the source give for `CN1C[C@H](c2cccc(F)c2)[C@@H](C(=O)C2CC[C@H]3[C@@H]4CC=C5C[C@@H](O)CC[C@]5(C)[C@H]4CC[C@]23C)[C@]12C(=O)Nc1ccccc12` (some centres unmarked) [23 (R = 3-FC6H4)] here?
**A.** 4.6 ± 0.7 µM

**Q.** Which results are given for `O=C(O)c1ccc([C@H]2C[C@H]3[C@@H](N2)[C@H](c2cccc(Cl)c2F)C2(C(=O)Nc4cc(Cl)ccc42)N3CC2CC2)cc1` (some centres unmarked) [compound 52, reference compound]?
**A.** IC50 [5]: > 25 µM; IC50 (p53–MDM2): 0.004 µM; IC50 [6]: 0.471 µM

**Q.** With `CN1CC2(NC(=S)N(CC34CC5CC(CC(C5)C3)C4)C2=O)C2(C1)C(=O)Nc1ccccc12` (centres unmarked) [92 (R = H, R’ = Me)] as the molecule, how does the p53 reporter activation (p53; A549, 1.56 to 100 μM compound concentrations) read?
**A.** 1.06 to 4.39 folds

**Q.** Which results are given for `O=C(c1ccc(Br)cc1)[C@@H]1S[C@@]2(C(=O)Nc3cccc(Br)c32)[C@@H](c2ccccc2)C[C@@H]1O` [146 (R^1/R^2/R^3 = 4-Br, 4-BrC6H4, Ph)]?
**A.** % inhibition, MCF7 (MCF7 (breast) [7]): 50.9%; % inhibition, A549 (A549 (lung) [8]): 86.9%; % inhibition, HCT116 (HCT116 (colon) [9]): 81.7%

**Q.** What does the source list for `CC(C)(C)OC(=O)N1CCC(c2nc(/C=C3\CCC4(C3=O)C3CCCCN3C3(C(=O)Nc5ccccc53)C4c3csc(C4CCN(C(=O)OC(C)(C)C)CC4)n3)cs2)CC1` (centres unmarked)?
**A.** IC50 (HeLa (cervical)): 76.3 µM; IC50 (MCF7 (breast) [11]): 63.4 µM

**Q.** With `CN1C[C@H](c2ccccc2Cl)[C@]2(NC(=S)N(CC34CC5CC(CC(C5)C3)C4)C2=O)[C@]12C(=O)Nc1ccc(Br)cc12` [89 (R = Br, R’ = 2-ClC6H4)] as the molecule, how does the IC50 (A549 (lung) [12]) read?
**A.** 7.2 ± 1.85 µM

**Q.** And the IC50 [13]?
**A.** 7.63 ± 0.75 µM

**Q.** Which results are given for `O=C(/C=C/c1ccc(Cl)cc1Cl)[C@H]1[C@H](c2ccc(Cl)cc2Cl)C2CSCN2[C@]12C(=O)Nc1ccccc12` (some centres unmarked) [49 (R = R^1 = 2,4-Cl2C6H3, R^2 = H)]?
**A.** IC50 (HCT116 (colon) [14]): 2 ± 0.6 µM; IC50 (HepG2 (liver) [15]): 0.85 ± 0.2 µM; IC50 (PC-3 (prostate)): 1.8 ± 0.3 µM; IC50 (VERO-B (normal) cells): 5 ± 0.245 µM

**Q.** For `CN1CC2(NC(=S)N(CC34CC5CC(CC(C5)C3)C4)C2=O)C2(C1)C(=O)Nc1ccc(Cl)cc12` (centres unmarked) [92 (R = Cl, R’ = Me)], which IC50 (A549 (lung) [12]) is on record?
**A.** 5 ± 0.6 µM

**Q.** And the IC50 [13]?
**A.** 2.8 ± 0.3 µM
